Test results reported in publication PMC8961538, “N-Acylated and N-Alkylated 2-Aminobenzothiazoles Are Novel Agents That Suppress the Generation of Prostaglandin E2” (Biomolecules, 2022).

Key:
[1] = system: PGE2 generation in CD4+ T cells; parameters: method as in PMID 25213337; conditions: cited from earlier work
[2] = system: GVIA iPLA2; parameters: method as in PMID 16203828; conditions: in vitro; cited from earlier work
[3] = system: hyperalgesia; parameters: method as in PMID 16203828; conditions: in vivo; cited from earlier work
[4] = system: GIVA cPLA2; parameters: method as in PMID 16203828; conditions: in vitro; cited from earlier work
[5] = system: spinal PGE2 release; parameters: method as in PMID 16203828; conditions: in vivo; cited from earlier work
[6] = system: PGE2 generation in rat mesangial cells; experiment: Suppression of IL-1β/forskolin-stimulated PGE2 generation in rat renal mesangial cells; assay type: cell-based; conditions: Rattus norvegicus, Mesangial cell, 24 h; for inhibition at 3 µM: 1 nM IL-1β plus 5 μM forskolin; for IC50: 0.1 to 3 µM, IL-1β plus forskolin, read-out: EC50 (μM), inhibition of PGE2 generation
Method: Rat renal mesangial cells (clone MZ B1), isolated and characterized as previously described, were cultivated in RPMI 1640 medium supplemented with 10% fetal bovine serum; 10 mM 4-(2-hydroxyethyl)-1-piperazineethanesulfonic acid (HEPES), pH 7.4; 6 µg/mL of bovine insulin; 5 µg/mL of transferrin; 5 nM sodium selenite; 100 units/mL of penicillin; and 100 µg/mL of streptomycin. The cells were incubated for 4 h in Dulbecco’s modified Eagle’s medium (DMEM) containing 10 mM HEPES, pH 7.4, and 0.1 mg/mL of fatty acid-free bovine serum albumin (BSA), prior to stimulation.
Confluent mesangial cells in 24-well plates were pretreated for 20 min with varying concentrations of inhibitors and then stimulated for 24 h in a total volume of 400 µL of DMEM containing 0.1 mg/mL of BSA, in the absence or presence of 1 nM interleukin 1β (IL-1) plus 5 μM forskolin (Fk). Thereafter, the supernatants were collected and centrifuged for 5 min at 1000× g. The PGE2 in the supernatant was quantified using an enzyme-linked immunoassay (Enzo Life Sciences, Lörrach, Germany) following the manufacturer’s recommendations.
Statistical analysis of the data was performed using one-way analysis of variance (ANOVA) followed by a Bonferroni’s post hoc test for multiple comparisons (GraphPad Prism 8.4.3., San Diego, CA, USA). The half maximal effective concentrations (EC50) of the inhibitors were calculated using the same software.

[7] = system: NO formation in cytokine-stimulated rat mesangial cells; experiment: IL-1/Fk-stimulated nitrite (NO) formation in rat mesangial cells, Griess assay; assay type: cell-based; conditions: IL-1 plus Fk, 24 h; nitrite in supernatants
Method: Figure S1. Effect of the inhibitor 19a on IL-1/Fk-stimulated nitrite formation in rat mesangial
Cells were pretreated for 20 min with the indicated concentrations of 19a and then stimulated for
24 h in the absence (-) or presence (+) of 1 nM interleukin 1β (IL-1) plus 5 µM forskolin (Fk).
Nitrite was quantified in supernatants using Griess assay as previously described.1 Data are
presented as mM of nitrite and are means +/- S.D. (n = 3).
1β induction of nitric oxide synthase in renal mesangial cells. Eur. J. Pharmacol. 1993,
(1 picture or pasted object on this page, not shown here)

[8] = system: rat-paw carrageenan-induced edema; experiment: Rat-paw carrageenan-induced-edema assay; assay type: in vivo; conditions: for In vivo anti-inflammatory activity compared with indomethacin: 0.01 mmol/kg, same dose as indomethacin
Method: The anti-inflammatory activities of selected aminobenzothiazole derivatives were determined by employing the rat-paw carrageenan-induced-edema assay, as previously described. Only male animals (180–220 g body weight) were used. Each group was composed of five animals. The animals were divided into three five-membered groups, and all the tested compounds were suspended in water (0.01 mmol/mL/kg body weight), with a few drops of Tween 80, and ground in a mortar before being administered intraperitoneally simultaneously. After treatment with the tested compounds in group 1, a 2nd group was used as a positive control (indomethacin at 0.01 mmol/mL/kg body weight, i.p.), and another group (3rd) served as the control in which water was administered (negative control). The compounds were injected intraperitoneally at the same time as carrageenan was given by intradermal injection. The rats were euthanized 3.5 h post-injection. The weight of the uninjected with carrageenan paw was subtracted from the weight of the injected paw for each animal. The change in paw weight for the treated animals was compared to that for the control animals and expressed as the percent inhibition of edema. The values of CPE % are the means from three different experiments with standard errors of the mean less than 10%. The statistical significance of the results was established with Student’s t-test, for * p < 0.01 and ** p < 0.05. All the animal experiments performed in the manuscript were conducted in compliance with institutional guidelines. Our studies were in accordance with recognized guidelines on animal experimentation (guidelines for the care and use of laboratory animals published by the Greek Government 160/1991, based on EU regulations 86/609). The rats were kept in the Centre of the School of Veterinary Medicine (EL54 BIO42), Aristotle University of Thessaloniki, which is registered by the official state veterinary authorities (presidential degree 56/2013, in harmonization with the European Directive 2010/63/EEC). The experimental protocols were approved by the Animal Ethics Committee of the Prefecture of Central Macedonia (no. 270079/2500).

[9] = target: T1, human recombinant group VIA phospholipase A2 (GVIA iPLA2) (Homo sapiens, UniProt O60733); experiment: Lipidomics-based mixed micelle PLA2 activity assay, GVIA iPLA2; assay type: biochemical; conditions: mole fraction of inhibitor in total substrate interface required to inhibit enzyme activity by 50%
T1 sequence (O60733 1-806): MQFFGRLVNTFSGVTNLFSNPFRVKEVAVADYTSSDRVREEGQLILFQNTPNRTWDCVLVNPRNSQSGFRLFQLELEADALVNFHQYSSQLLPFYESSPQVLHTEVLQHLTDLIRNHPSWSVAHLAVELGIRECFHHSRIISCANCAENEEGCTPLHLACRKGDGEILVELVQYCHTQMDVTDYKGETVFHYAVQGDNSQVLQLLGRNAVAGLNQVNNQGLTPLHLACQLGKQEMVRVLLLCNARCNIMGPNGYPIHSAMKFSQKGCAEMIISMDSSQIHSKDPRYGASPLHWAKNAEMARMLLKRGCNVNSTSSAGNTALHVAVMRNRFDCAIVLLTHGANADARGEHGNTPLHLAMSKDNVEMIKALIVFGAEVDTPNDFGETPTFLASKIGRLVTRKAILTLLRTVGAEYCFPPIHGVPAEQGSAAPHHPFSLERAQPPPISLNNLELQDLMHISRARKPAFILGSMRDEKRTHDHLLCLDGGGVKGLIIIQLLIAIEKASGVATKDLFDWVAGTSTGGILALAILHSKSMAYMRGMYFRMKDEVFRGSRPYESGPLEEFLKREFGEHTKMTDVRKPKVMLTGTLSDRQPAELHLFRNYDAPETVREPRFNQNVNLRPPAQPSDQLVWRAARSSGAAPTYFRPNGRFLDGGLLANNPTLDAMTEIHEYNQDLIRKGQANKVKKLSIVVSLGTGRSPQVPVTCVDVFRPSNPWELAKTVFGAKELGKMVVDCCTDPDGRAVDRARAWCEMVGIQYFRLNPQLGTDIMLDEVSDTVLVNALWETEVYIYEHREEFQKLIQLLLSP

[10] = system: PGE2 generation in rat mesangial cells; conditions: cited from earlier work; for EC50: read-out: EC50, inhibition of PGE2 formation
[11] = system: allodynia after facial carrageenan injection; conditions: after facial carrageenan injection in mice; cited from earlier work

Question: Which “Inhibition of generation of PGE2” value [1] does the source give for `O=C(CCCCc1ccc2ccccc2c1)C(F)(F)F` [FKGK18, 1,1,1-trifluoro-6-(2-naphthalenyl)-2-hexanone] here?
Answer: inhibit the generation of PGE2

Question: For `CCCCCCCCCCCCCCC(=O)C(=O)NCCCC(=O)OCC` [AX048, ethyl 4-(2-oxohexadecanamido)butanoate], which “XI(50) for GVIA iPLA2” value [2] is on record?
Answer: 0.027 mole fraction

Question: And the Anti-hyperalgesic activity [3]?
Answer: anti-hyperalgesic activity

Question: What about the “XI(50) for GIVA cPLA2” value [4] of the same compound?
Answer: 0.022 mole fraction

Question: What about the “Inhibition of spinal PGE2 release” value [5] of the same compound?
Answer: inhibits spinal PGE2 release

Question: Which results are given for `c1ccc2cc(CCCNc3nc4ccccc4s3)ccc2c1` [Compound 19a, N-(3-(Naphthalen-2-yl)Propyl)Benzo[d]Thiazol-2-Amine]?
Answer: inhibition at 3 µM [6]: > 80%; IC50 [6]: 0.118 µM; Effect on NO production [7]: No effect; melting point: 112 to 114 °C; In vivo anti-inflammatory activity compared with indomethacin [8]: higher than that of indomethacin; In vivo anti-inflammatory activity compared with indomethacin ([8]; listed as GK543): greater than that of indomethacin; XI(50) for GVIA iPLA2 [9]: 0.03 mole fraction

Question: Which results are given for `O=C(CCCCc1ccc2ccccc2c1)c1nc2ccccc2s1` [Compound 1]?
Answer: % inhibition of PGE2 generation ([10]; comparison value for compound 1): 85%; EC50 ([10]; rat mesangial cells): 710 nM

Question: For `CCCCC/C=C\C/C=C\C/C=C\C/C=C\CCCC(=O)C(F)(F)F` [arachidonoyl trifluoromethyl ketone], which Effect on allodynia [11] is on record?
Answer: modulates allodynia

Question: What about the “Inhibition of cytokine-stimulated generation of PGE2” value ([10]; rat mesangial cells) of the same compound?
Answer: inhibits

Question: What does the source list for `O=C(CCc1ccc2ccccc2c1)Nc1nc2ccccc2s1` [Compound 5b, N-(Benzo[d]Thiazol-2-yl)-3-(Naphthalen-2-yl)Propanamide]?
Answer: inhibition at 3 µM [6]: > 80%; IC50 [6]: 0.173 µM; melting point: 46 to 48 °C; In vivo anti-inflammatory activity compared with indomethacin [8]: higher than that of indomethacin; In vivo anti-inflammatory activity compared with indomethacin ([8]; listed as GK510): greater than that of indomethacin

Question: Which EC50 ([10]; rat mesangial cells) does the source give for `O=C(CCCCc1ccc2ccccc2c1)c1nc2ccccc2o1` [Compound 2] here?
Answer: 790 nM

Question: With `COc1ccc2c(c1)c(CC(=O)O)c(C)n2C(=O)c1ccc(Cl)cc1` [Indomethacin, reference compound] as the compound, how does the “% Reduction of Rat-Paw Edema” value ([8]; 0.01 mmol/kg i.p., given with carrageenan, 3.5 h post-injection) read?
Answer: 37.3%
